Molecules are shown by their SMILES.

This assay deals with Vesicular inhibitory amino acid transporter (Rattus norvegicus) + Acetylcholine receptor subunit alpha (Homo sapiens) + Estrogen receptor (Homo sapiens) + Glucocorticoid receptor (Homo sapiens) + Sodium channel protein type 1 subunit alpha (Rattus norvegicus) + Beta-2 adrenergic receptor (Homo sapiens) + Muscarinic acetylcholine receptor M2 (Homo sapiens) + Beta-1 adrenergic receptor (Homo sapiens) + 5-hydroxytryptamine receptor 1A (Homo sapiens) + Alpha-2A adrenergic receptor (Homo sapiens) + Muscarinic acetylcholine receptor M1 (Homo sapiens) + Interleukin-1 receptor type 1 (Mus musculus) + D(2) dopamine receptor (Homo sapiens) + Androgen receptor (Rattus norvegicus) + Gamma-aminobutyric acid receptor subunit gamma-2 (Rattus norvegicus) + Muscarinic acetylcholine receptor M3 (Homo sapiens) + D(1A) dopamine receptor (Homo sapiens) + D(4) dopamine receptor (Homo sapiens) + Glutamate receptor ionotropic, kainate 1 (Rattus norvegicus) + Sodium-dependent noradrenaline transporter (Homo sapiens) + Endothelin receptor type B (Homo sapiens) + Alpha-1D adrenergic receptor (Homo sapiens) + Endothelin-1 receptor (Homo sapiens) + Substance-P receptor (Homo sapiens) + Neuropeptide Y receptor type 1 (Homo sapiens) + Adenosine receptor A2a (Homo sapiens) + B2 bradykinin receptor (Homo sapiens) + Adenosine receptor A1 (Homo sapiens) + Sodium-dependent serotonin transporter (Homo sapiens) + Neuronal acetylcholine receptor subunit alpha-3 (Homo sapiens) + Histamine H1 receptor (Homo …. Kind of assay: off-target activity at receptors, channels, transporters, profiling panel, selectivity assay for ROMK channel modulator project, biochemical, MDS panel (AID 1924). As to conditions: MDS Pharma lead profiling binding panel, at 10 µM, stronger effect = higher value.

For the compound `O=[N+]([O-])c1ccc2nc(COCc3nc4ccc([N+](=O)[O-])cc4[nH]3)[nH]c2c1`, the inhibition (commonly the drop in the measured response relative to a control, in per cent) is 75%. Moreover, the inhibition (measured here: Adenosine A1 human binding) stood at 14%. For the setting “measured here: Adenosine A3 human binding”, the inhibition came out at 21%. The inhibition (measured here: Adrenergic a2A human binding) was determined as 14%. Further, the inhibition (measured here: Adrenergic b2 human binding) is 9%. Moreover, the inhibition (measured here: Bradykinin B2 human binding) was -16%. Further, for the setting “measured here: Calcium channel L-type BTZ rat”, the inhibition is 22%. Besides, the inhibition (measured here: Calcium channel L-type DHP rat) stood at 26%. Also, the inhibition (measured here: Calcium channel N-type rat) was determined as 0%. In addition, where the note is “measured here: Dopamine D1 human binding”, the inhibition was -2%. For the same compound, under “measured here: Dopamine D2S human binding”, the inhibition was -6%. The inhibition (measured here: Dopamine D3 human binding) turned out to be 1%. The inhibition (measured here: Estrogen ER alpha human binding) was found to be 1%.
